The text below walks through data of patent publication US12581252B2, “Substituted pyrrolo[3,4-b]pyridines as PI3K-α inhibitors” (Relay Therapeutics, Inc., priority 2020, dated 2026).

The structures appear in SMILES notation.

The IC50 is the midpoint of a concentration-inhibition curve. A high value points to weaker potency in that assay.

The target of this experiment is H1047R PIK3CA enzyme (Homo sapiens, UniProt P42336, H1047R). Description: ADP-Glo Biochemical PIK3CA Kinase Assay. A general note: ADP-Glo first removes unused ATP, then detects ADP through luciferase.
Chain of H1047R PIK3CA enzyme (P42336 whole entry H1047R): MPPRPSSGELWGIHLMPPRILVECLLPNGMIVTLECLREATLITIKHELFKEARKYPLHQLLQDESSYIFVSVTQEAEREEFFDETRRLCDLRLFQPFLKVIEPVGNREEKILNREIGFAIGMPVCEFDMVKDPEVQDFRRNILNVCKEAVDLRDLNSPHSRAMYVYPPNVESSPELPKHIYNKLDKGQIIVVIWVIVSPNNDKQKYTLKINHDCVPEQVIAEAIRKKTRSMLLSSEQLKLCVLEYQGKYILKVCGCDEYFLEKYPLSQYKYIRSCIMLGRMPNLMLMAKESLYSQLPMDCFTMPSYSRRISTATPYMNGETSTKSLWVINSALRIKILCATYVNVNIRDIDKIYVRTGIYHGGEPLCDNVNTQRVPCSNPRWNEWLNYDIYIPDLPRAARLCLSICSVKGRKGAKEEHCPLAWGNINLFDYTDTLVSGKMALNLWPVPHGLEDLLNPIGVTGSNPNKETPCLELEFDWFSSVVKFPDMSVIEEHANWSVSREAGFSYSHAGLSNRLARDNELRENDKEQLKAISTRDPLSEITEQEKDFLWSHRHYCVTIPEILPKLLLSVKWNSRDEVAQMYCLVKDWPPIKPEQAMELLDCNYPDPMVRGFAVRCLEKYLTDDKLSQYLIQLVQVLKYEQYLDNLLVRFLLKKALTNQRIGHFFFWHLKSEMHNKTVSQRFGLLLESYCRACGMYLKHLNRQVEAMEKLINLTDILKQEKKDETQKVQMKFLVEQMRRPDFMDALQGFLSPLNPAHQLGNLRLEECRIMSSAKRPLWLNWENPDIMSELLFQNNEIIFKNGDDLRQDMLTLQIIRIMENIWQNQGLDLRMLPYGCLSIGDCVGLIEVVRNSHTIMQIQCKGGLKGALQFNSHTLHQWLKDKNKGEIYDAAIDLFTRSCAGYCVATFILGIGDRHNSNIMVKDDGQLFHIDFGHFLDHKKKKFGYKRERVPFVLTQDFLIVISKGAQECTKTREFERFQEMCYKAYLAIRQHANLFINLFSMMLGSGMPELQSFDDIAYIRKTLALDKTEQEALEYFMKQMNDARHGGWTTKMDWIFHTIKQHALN
Chain of H1047R PIK3CA enzyme (P27986 whole entry partner): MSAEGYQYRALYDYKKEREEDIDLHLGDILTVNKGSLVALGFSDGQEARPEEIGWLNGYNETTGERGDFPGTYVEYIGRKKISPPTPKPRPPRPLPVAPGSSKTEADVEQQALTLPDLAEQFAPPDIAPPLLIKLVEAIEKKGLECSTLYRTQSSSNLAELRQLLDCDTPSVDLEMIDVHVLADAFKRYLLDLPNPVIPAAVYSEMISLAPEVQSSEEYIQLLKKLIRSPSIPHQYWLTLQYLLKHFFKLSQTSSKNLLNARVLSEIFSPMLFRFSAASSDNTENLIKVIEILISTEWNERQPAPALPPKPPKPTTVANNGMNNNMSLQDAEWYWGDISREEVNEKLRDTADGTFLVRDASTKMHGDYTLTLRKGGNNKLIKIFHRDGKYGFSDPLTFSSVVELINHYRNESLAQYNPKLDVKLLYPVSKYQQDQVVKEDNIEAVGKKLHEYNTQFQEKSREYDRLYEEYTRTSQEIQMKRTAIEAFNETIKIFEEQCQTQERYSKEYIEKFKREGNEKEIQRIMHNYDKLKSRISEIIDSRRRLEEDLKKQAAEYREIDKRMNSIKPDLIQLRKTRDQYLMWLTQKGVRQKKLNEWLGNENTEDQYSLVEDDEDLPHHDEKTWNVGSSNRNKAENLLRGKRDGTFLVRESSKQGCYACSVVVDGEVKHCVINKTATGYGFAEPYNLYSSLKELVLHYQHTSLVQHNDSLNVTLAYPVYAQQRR
`CC(O)(c1cc(NC(=O)c2cc(F)cc(C(F)(F)F)c2)c2c(c1)C(=O)NC2c1cc(F)ccc1Cl)c1ccccn1` (stereo not drawn) [Compound I-1188] displayed an IC50 not above 100 nM. With `O=C1N[C@@H](c2cc(F)ccc2Cl)c2c(NC(=O)N3C[C@H](O)c4cc(F)ccc43)cc(Cl)cc21` (single isomer, unassigned) [Compound I-2400] the figure was 100 to 500 nM. Compound `O=C(Nc1cc(-c2cnc(-n3cccn3)nc2)cc2c1C(c1cc(F)ccc1Cl)NC2=O)c1cc(F)cc(C(F)(F)F)c1` (stereo not drawn) [Compound I-1483] registered an IC50 not above 100 nM.

In the case of `N#Cc1cc(-c2ccc(=O)[nH]c2)cc2c1C(c1cc(F)ccc1Cl)NC2=O` (stereo not drawn) [Compound I-2089], the IC50 fell in the range of 10000 to 100000 nM.

`O=C(Nc1cc(Oc2ncncc2F)cc2c1C(c1cc(F)ccc1Cl)NC2=O)c1cc(F)cc(C(F)(F)F)c1` (stereo not drawn) [Compound I-1246] displayed an IC50 not above 100 nM. The compound `O=C1NC(c2cc(F)ccc2Cl)c2c(NC(=O)[C@H]3C[C@H](O)c4ccccc43)cc(Br)cc21` (mixture of isomers) [Compound I-1943] registered an IC50 of 10000 to 100000 nM. Consider `O=C1NCc2c(NC(=O)c3coc4ccc(Cl)cc34)cccc21` [Compound I-402], for which the IC50 fell in the range of 10000 to 100000 nM. Turning to `O=C1CCc2cc(F)cc(C(=O)Nc3cc(Br)cc4c3C(c3cc(F)ccc3Cl)NC4=O)c2N1` (stereo not drawn) [Compound I-1546], the IC50 fell in the range of 10000 to 100000 nM. In the case of `O=C(Nc1cc(-c2cccnc2C(F)(F)F)cc2c1C(c1cc(F)ccc1Cl)NC2=O)c1cc(F)cc(C(F)(F)F)c1` (stereo not drawn) [Compound I-892] it was not above 100 nM; in that of `O=C(Nc1cc(Br)cc2c1[C@@H](c1ccc(F)cc1Cl)NC2=O)c1cc(F)cc(C(F)(F)F)c1` [Compound I-754], 1000 to 10000 nM. `O=C(Nc1cc(Br)cc2c1C(c1cc(F)ccc1Cl)NC2=O)c1cccc(F)c1` (stereo not drawn) [Compound I-526] gave an IC50 of 1000 to 10000 nM.

`NC(=O)c1cc(-c2ccc3ncnn3c2)cc2c1C(c1cc(F)ccc1Cl)NC2=O` (stereo not drawn) [Compound I-1774] showed a 50% inhibitory concentration (IC50) of 1000 to 10000 nM. Compound `O=C(Cc1cc(-c2ccc3ncnn3c2)cc2c1C(c1cc(F)ccc1Cl)NC2=O)c1cc(F)cc(C(F)(F)F)c1` (stereo not drawn) [Compound I-1772] showed an IC50 of 100 to 500 nM. Compound `O=C(Nc1cc(-c2cnn(C(F)F)c2)cc2c1C(c1cc(F)ccc1Cl)NC2=O)c1cc(F)cc(C(F)(F)F)c1` (stereo not drawn) [Compound I-1657] showed an IC50 not above 100 nM. In turn, `COc1cccc(-c2cccc3c2C(c2ccccc2C)NC3=O)n1` (stereo not drawn) [Compound I-14] showed an IC50 of 10000 to 100000 nM.

`O=C(Nc1cc(-c2ccc(=O)n(C(F)F)c2)cc2c1[C@H](c1cc(F)ccc1Cl)NC2=O)c1cc(F)cc(C(F)(F)F)c1` [Compound I-1861] yielded an IC50 not above 100 nM. Compound `O=C(Nc1cc(-c2cnn3ncnc3c2)cc2c1[C@H](c1cc(F)ccc1Cl)NC2=O)c1cc(F)cc(C(F)(F)F)c1` [Compound I-1872] came in with an IC50 not above 100 nM. With `N[C@]1(C(F)(F)F)CN(C(=O)Nc2cccc3c2[C@@H](c2cc(F)ccc2Cl)NC3=O)c2ccc(F)cc21` (racemic) [Compound I-2471] the figure was 1000 to 10000 nM; with `O=C(Nc1cc(O)cc2c1C(c1cc(F)ccc1Cl)NC2=O)c1cc(F)cc(Cl)c1` (stereo not drawn) [Compound I-383], not above 100 nM; with `O=C(Nc1cc(-c2ccc3ncnn3c2)cc2c1[C@H](c1cc(F)ccc1Cl)NC2=O)c1cc(F)cc(C(F)F)c1` (stereo in doubt) [Compound I-1171], 100 to 500 nM. With `O=C(Nc1cc(-c2ccc3ncnn3c2)nc2c1C(c1cc(F)ccc1Cl)NC2=O)c1cc(F)cc(C(F)(F)F)c1` (stereo not drawn) [Compound I-1226] the figure was not above 100 nM; with `O=C(Nc1cc(-c2ccn3ncnc3c2F)cc2c1C(c1cc(F)ccc1Cl)NC2=O)c1cc(F)cc(C(F)(F)F)c1` (stereo not drawn) [Compound I-1698], not above 100 nM; with `CCn1cc(-c2cc(NC(=O)c3cc(F)cc(C(F)(F)F)c3)c3c(c2)C(=O)N[C@H]3c2cc(F)ccc2Cl)ccc1=O` [Compound I-704], not above 100 nM. In turn, `CC1(Nc2cc(NC(=O)c3cc(F)cc(C(F)(F)F)c3)c3c(c2)C(=O)NC3c2cc(F)ccc2Cl)COC1` (stereo not drawn) [Compound I-610] had a 50% inhibitory concentration (IC50) not above 100 nM.
